From US20120283335A1, “Analogs of Propofol, Preparation Thereof and Use as Anesthetics” (priority 2008, published 2012)
Entries after “also recorded” stand apart in the source; their conditions may differ.

Legend:
[1] = system: Male Sprague Dawley rats; assay: Test A. Loss of Righting Reflex Assay with dose escalation to maximum tolerated dose; assay type: in vivo; settings: rat; for Safety compared with propofol: doses escalated; for Potency compared with propofol: equal dose (7 mg/kg), 7 mg/kg
Text: The ability of a compound of the invention to produce an anesthetic effect (i.e. efficacy) can be determined using standard pharmacological models that are well known to the art. […] The potency of such a compound was compared to the potency of propofol using this assay.
The safety of a compound of the invention can be determined using standard pharmacological models that are well known to the art. […] The safety of such a compound was compared to that of propofol using this assay.
Male Sprague Dawley rats were restrained in a holder, and test compound or propofol was injected in the tail vein (based on milligrams (mg) compound per kilogram (kg) body weight). Following administration, the rats were placed in a dorsal recumbent position on a heating blanket. The time to onset for the loss of the Righting Reflex (RR-ability of rat to right itself) was recorded, as was the duration of the loss of the RR. Doses were escalated until the maximum tolerated doses were achieved.

[2] = system: pig; assay: Test B. Anesthetized Pig Model (hemodynamic profile); assay type: in vivo; settings: 20 minute intravenous infusion, data in FIGS. 1 and 2
Description: The hemodynamic profile of a compound of the invention can be determined using standard pharmacological models that are well known to the art. The hemodynamic and anesthetic profiles of a compound of the invention can be evaluated simultaneously using an anesthetized pig model (as described in Test B below).
The anesthetic induction was performed using a modification of a technique described by Ko et al (Ko et al., Lab Anim Sci 1993; 43: 476-80) for swine (Telazol, xylazine and ketamine given as an intramuscular injection). The minimal effective dose for induction and tracheal intubation was used. […]
A compound of the invention or propofol was administered intravenously by a 20 minute infusion after the stabilization period through the peripheral IV catheter. […] Blood samples (1 mL each) were collected at pre-dose and at 2, 4, 6, 8, 10, 12, 15, 20, 22, […], 25, 35, 50, 65 and 80 minutes after the start of the first infusion for pharmacokinetic purposes; EEG were recorded continuously as the primary pharmacodynamic endpoint. […]
The EEG signal was fed to a BIS analyzer (Aspect Medical) which provided continuous output of processed EEG data. The output consisted of a “BIS” number calculated by a proprietary algorithm that ranges between 100 (fully conscious) and 0 (isoelectric) and indicated brain activity.
Hemodynamic data were recorded and plotted to assess trends over the drug exposure period. […]

SMILES	Safety compared with propofol [1]	Potency compared with propofol [1]	Outcome: deaths ([1]; tail vein bolus dose 7 mg/kg)	Outcome: minutes of sleep post bolus dose ([1]; tail vein bolus dose 7 mg/kg)	Outcome: deaths ([1]; tail vein bolus dose 14 mg/kg)	Outcome: deaths ([1]; tail vein bolus dose 21 mg/kg)	Potency compared with propofol ([1]; listed as 2-(1-Ethylpropyl)-6-isopropylphenol)	Hemodynamic properties compared with propofol [2]
CC(C)c1cccc(C(C)C(C)C)c1O (racemic) [2-(3-methyl)secbutyl-6-isopropylphenol]	greater safety compared to propofol; also recorded: improved safety	at least equivalent, if not greater potency than propofol; also recorded: at least equivalent potency	0/6 deaths	7.5 minutes of sleep post	0/6 deaths	0/6 deaths	–	–
CCC(CC)c1cccc(C(C)C)c1O [2-(1-ethylpropyl)-6-isopropylphenol]	greater safety compared to propofol; also recorded: improved safety	at least equivalent potency	0/6 deaths	9.9 minutes of sleep post	0/6 deaths	0/6 deaths	at least equivalent, if not greater, potency than propofol	improved hemodynamic properties
CC(C)c1cccc(C(C)C)c1O [Propofol, 2,6-diisopropylphenol]	–	–	0/10 deaths	7.1 minutes of sleep post	6/10 deaths	4/6 deaths	–	–
